{"source": "patent US7687517B2", "about": "“3,9-Diazabicyclo [3.3.1] nonane derivatives and their use as monoamine neurotransmitter re-uptake inhibitors” (Neurosearch A/S, priority 2006, dated 2010)", "key": {"[1]": {"target": "T1, reuptake of serotonine (5-HT) in synaptosomes (Rattus norvegicus, UniProt P31652)", "T1 construct": "in synaptosomes as described in WO 97/16451; from tissue", "T1 sequence (P31652 whole entry)": "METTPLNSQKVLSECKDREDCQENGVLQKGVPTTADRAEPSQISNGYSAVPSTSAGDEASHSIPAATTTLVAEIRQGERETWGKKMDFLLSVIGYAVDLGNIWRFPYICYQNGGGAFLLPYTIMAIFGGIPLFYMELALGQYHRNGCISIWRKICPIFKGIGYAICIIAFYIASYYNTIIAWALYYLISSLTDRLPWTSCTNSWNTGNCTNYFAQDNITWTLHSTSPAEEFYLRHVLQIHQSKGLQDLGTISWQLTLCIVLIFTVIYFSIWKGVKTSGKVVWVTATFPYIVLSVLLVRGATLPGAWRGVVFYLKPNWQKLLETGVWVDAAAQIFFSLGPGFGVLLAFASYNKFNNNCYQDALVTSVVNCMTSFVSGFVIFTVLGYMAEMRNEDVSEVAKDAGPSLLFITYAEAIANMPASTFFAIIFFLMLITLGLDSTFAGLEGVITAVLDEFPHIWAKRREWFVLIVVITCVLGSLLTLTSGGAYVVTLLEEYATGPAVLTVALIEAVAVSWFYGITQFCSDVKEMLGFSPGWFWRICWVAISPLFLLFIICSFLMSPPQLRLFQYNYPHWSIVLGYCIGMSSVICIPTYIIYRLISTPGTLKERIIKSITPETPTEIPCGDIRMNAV", "assay": "Inhibition of serotonin reuptake in synaptosomes", "type": "biochemical", "procedure": "A number of compounds were tested for their ability to inhibit the reuptake of the monoamine neurotransmitters dopamine (DA) noradrenaline (NA) and serotonine (5-HT) in synaptosomes as described in WO 97/16451.\nThe test values are given as IC50 (the concentration (μM) of the test substance which inhibits the specific binding of ^3H-DA, ^3H-NA, or ^3H-5-HT by 50%)."}, "[2]": {"target": "T2, reuptake of noradrenaline (NA) in synaptosomes (Rattus norvegicus, UniProt Q63380)", "T2 construct": "in synaptosomes as described in WO 97/16451; from tissue", "T2 sequence (Q63380 1-617)": "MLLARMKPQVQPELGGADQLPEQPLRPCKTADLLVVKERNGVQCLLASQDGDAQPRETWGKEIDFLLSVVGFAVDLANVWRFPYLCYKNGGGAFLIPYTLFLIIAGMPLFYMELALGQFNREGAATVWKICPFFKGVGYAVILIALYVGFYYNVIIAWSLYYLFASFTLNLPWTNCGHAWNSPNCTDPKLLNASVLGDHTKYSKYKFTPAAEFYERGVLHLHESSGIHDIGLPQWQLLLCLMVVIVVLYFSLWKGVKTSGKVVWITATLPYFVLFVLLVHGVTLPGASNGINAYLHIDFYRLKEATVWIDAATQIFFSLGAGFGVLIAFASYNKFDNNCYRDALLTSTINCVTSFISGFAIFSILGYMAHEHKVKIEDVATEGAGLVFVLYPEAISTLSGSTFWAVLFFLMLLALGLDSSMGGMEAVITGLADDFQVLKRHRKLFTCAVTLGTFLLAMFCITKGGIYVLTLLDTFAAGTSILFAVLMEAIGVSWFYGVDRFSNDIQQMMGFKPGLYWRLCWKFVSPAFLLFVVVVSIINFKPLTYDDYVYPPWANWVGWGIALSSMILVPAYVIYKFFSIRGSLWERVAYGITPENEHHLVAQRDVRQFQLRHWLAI", "assay": "Inhibition of noradrenaline reuptake in synaptosomes", "type": "biochemical"}, "[3]": {"target": "T3, reuptake of dopamine (DA) in synaptosomes (Rattus norvegicus, UniProt P23977)", "T3 construct": "in synaptosomes as described in WO 97/16451; from tissue", "T3 sequence (P23977 whole entry)": "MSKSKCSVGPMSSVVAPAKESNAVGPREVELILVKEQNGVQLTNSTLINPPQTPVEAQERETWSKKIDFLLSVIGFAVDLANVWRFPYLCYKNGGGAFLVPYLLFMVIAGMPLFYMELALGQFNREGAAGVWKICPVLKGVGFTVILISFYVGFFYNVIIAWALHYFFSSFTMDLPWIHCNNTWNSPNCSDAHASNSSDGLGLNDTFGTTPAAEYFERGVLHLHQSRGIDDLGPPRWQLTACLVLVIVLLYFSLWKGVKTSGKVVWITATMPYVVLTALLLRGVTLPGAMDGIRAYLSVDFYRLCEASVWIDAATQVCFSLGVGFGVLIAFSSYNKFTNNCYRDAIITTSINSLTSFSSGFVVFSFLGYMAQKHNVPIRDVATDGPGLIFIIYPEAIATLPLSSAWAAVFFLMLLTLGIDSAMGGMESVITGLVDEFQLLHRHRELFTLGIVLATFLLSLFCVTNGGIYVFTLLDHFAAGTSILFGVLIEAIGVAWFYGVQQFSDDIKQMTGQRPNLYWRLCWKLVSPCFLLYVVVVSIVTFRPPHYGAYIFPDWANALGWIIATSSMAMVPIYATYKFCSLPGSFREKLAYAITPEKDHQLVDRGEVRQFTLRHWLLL", "assay": "Inhibition of dopamine reuptake in synaptosomes", "type": "biochemical", "conditions": "3H-DA, read-out: DA-uptake IC50"}, "[4]": {"conditions": "synaptosomes, 3H-NA, read-out: NA-uptake IC50"}}, "note": "Where a name gives a salt, the structure may show the parent alone. Read-outs that look alike come from different tables or passages of the source.", "data": [{"smiles": "CN1C2CCCC1CN(c1ccc3ccccc3n1)C2", "note": "[2nd compound of Method A, 9-Methyl-3-quinolin-2-yl-3,9-diaza-bicyclo[3.3.1]nonane]", "values": [{"measurement": "IC50", "setting": "[1]", "value": 7.7, "unit": "nM"}, {"measurement": "IC50", "setting": "[2]; [4]", "value": 140, "unit": "nM"}, {"measurement": "IC50", "setting": "[3]", "value": "> 1000", "unit": "nM"}]}, {"smiles": "CN1C2CCCC1CN(c1ccc3ccccc3n1)C2", "note": "(as salt: fumaric acid salt) [2nd compound of Method A, 9-Methyl-3-quinolin-2-yl-3,9-diaza-bicyclo[3.3.1]nonane]", "values": [{"measurement": "melting point", "value": "170.2 to 176.9", "unit": "°C"}]}, {"smiles": "COc1ccc2nc(N3CC4CCCC(C3)N4C)ccc2c1", "note": "[5th compound of Method A, 3-(6-Methoxy-quinolin-2-yl)-9-methyl-3,9-diaza-bicyclo[3.3.1]nonane]", "values": [{"measurement": "IC50", "setting": "[1]", "value": 26, "unit": "nM"}, {"measurement": "IC50", "setting": "[2]", "value": 100, "unit": "nM"}, {"measurement": "IC50", "setting": "[3]", "value": 1800, "unit": "nM"}]}, {"smiles": "O=[N+]([O-])c1ccc2nc(N3CC4CCCC(C3)N4)ccc2c1", "note": "[1st compound of Method B, 3-(6-Nitro-quinolin-2-yl)-3,9-diaza-bicyclo[3.3.1]nonane]", "values": [{"measurement": "IC50", "setting": "[1]", "value": 0.9, "unit": "nM"}, {"measurement": "IC50", "setting": "[2]; [4]", "value": 1200, "unit": "nM"}, {"measurement": "IC50", "setting": "[3]", "value": "> 1000", "unit": "nM"}]}]}
